25 molecules from patent US10206907B2, “Compounds useful for the treatment of degenerative and inflammatory diseases” (GALAPAGOS NV, priority 2008, dated 2019) can be followed below.

The structures appear in SMILES notation. Some results are limits rather than exact numbers.

A word on the IC50: it is the concentration needed to halve the response being measured.

For assay [1], the target named is Recombinant human JAK2 catalytic domain (Homo sapiens (Human), UniProt O60674). As to the kind of experiment: JAK2 inhibition assay. The settings on record: semi-quantitative score. The assay is classed as biochemical. As to the method: After 90 min at 30° C., reactions were stopped by adding of 25 μL/well of 150 mM phosphoric acid. […] Plates were washed 6 times with 300 μL per well of a 75 mM phosphoric acid solution and the bottom of the plates was sealed. 40 μL/well of Microscint-20 was added, the top of the plates was sealed and readout was performed using the Topcount (Perkin Elmer). Kinase activity was calculated by subtracting counts per minute (cpm) obtained in the presence of a positive control inhibitor (10 μM staurosporine) from cpm obtained in the presence of vehicle. The ability of a test compound to inhibit this activity was determined as: Percentage inhibition=((cpm determined for sample with test compound present−cpm determined for sample with positive control inhibitor) divided by (cpm determined in the presence of vehicle−cpm determined for sample with positive control inhibitor))*100%.
Chain of Recombinant human JAK2 catalytic domain (O60674 808-1132): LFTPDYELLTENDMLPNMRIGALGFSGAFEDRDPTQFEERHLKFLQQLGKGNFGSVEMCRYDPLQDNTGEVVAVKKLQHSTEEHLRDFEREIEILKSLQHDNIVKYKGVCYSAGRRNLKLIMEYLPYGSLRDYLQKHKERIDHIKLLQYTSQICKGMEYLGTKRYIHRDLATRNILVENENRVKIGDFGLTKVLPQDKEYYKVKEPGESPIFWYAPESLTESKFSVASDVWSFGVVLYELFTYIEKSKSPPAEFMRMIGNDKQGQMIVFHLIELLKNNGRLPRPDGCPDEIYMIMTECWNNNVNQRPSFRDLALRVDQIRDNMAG
Dose dilution series were prepared for the compounds enabling the testing of dose-response effects in the JAK2 assay and the calculation of the IC50 for each compound.

Assay [2] concerns the target Recombinant human JAK1 catalytic domain (Homo sapiens (Human), UniProt P23458). As to the kind of experiment: JAK1 inhibition assay. Conditions: semi-quantitative score. In kind it is biochemical. A digest of the protocol:
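IC50 values come from dose-response series, with each point expressed as percent inhibition of cpm. Vehicle sets full activity and 10 μM staurosporine sets background. Incorporated radioactivity counted by scintillation after washing with 75 mM phosphoric acid.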

Chain of Recombinant human JAK1 catalytic domain (P23458 850-1154): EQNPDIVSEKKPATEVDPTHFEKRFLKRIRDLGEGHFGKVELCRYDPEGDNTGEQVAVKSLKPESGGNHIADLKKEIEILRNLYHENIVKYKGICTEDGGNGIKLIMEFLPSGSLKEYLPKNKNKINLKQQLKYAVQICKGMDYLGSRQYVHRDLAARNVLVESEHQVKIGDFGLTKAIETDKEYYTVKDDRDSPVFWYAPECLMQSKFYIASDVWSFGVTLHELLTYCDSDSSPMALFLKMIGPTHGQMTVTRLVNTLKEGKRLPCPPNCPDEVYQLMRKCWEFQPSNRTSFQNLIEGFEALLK

For `CC(C)(O)C1CCN(Cc2ccc(-c3cccc4nc(NC(=O)C5CC5)nn34)cc2)CC1` [Compound 243, Cyclopropanecarboxylic acid (5-{4-[4-(1-hydroxy-1-methyl-ethyl)-piperidin-1-ylmethyl]-phenyl}-[1,2,4]triazolo[1,5-a]pyridin-2-yl)-amide], the figures for the IC50 in assay [1] and in assay [2] were 501 to 1000 nM and 101 to 500 nM, respectively.
In the same order, the values of `CC1CC(C)CN(C(=O)Cc2ccc(-c3cccc4nc(NC(=O)C5CC5)nn34)cc2)C1` (centres unmarked) [Compound 320, Cyclopropanecarboxylic acid (5-{4-[2-(3,5-dimethyl-piperidin-1-yl)-2-oxo-ethyl]-phenyl}-[1,2,4]triazolo[1,5-a]pyridin-2-yl)-amide] are 101 to 500 nM and 101 to 500 nM.
Regarding `CCN(CC)C1CCN(C(=O)c2ccc(-c3cccc4nc(NC(=O)C5CC5)nn34)cc2)C1` (centres unmarked) [Compound 285, Cyclopropanecarboxylic acid {5-[4-(3-diethylamino-pyrrolidine-1-carbonyl)-phenyl]-[1,2,4]triazolo[1,5-a]pyridin-2-yl}-amide], the IC50 in assay [1] was above 1000 nM; in assay [2], 101 to 500 nM.
On the same counts, the results for `CCOC1CCN(Cc2ccc(-c3cccc4nc(NC(=O)C5CC5)nn34)cc2)CC1` [Compound 282, Cyclopropanecarboxylic acid {5-[4-(4-ethoxy-piperidin-1-ylmethyl)-phenyl]-[1,2,4]triazolo[1,5-a]pyridin-2-yl}-amide] are above 1000 nM and 101 to 500 nM.
On the same counts, the results for `CN1CCN(C(=O)NCc2ccc(-c3cccc4nc(NC(=O)C5CC5)nn34)cc2)CC1` [Compound 308, 4-Methyl-piperazine-1-carboxylic acid 4-[2-(cyclopropanecarbonyl-amino)-[1,2,4]triazolo[1,5-a]pyridin-5-yl]-benzylamide] are above 1000 nM and 101 to 500 nM.
In the same order, the values of `CC(=O)N(C)C1CN(Cc2ccc(-c3cccc4nc(NC(=O)C5CC5)nn34)cc2)C1` [Compound 283, Cyclopropanecarboxylic acid (5-{4-[3-(acetyl-methyl-amino)-azetidin-1-ylmethyl]-phenyl}-[1,2,4]triazolo[1,5-a]pyridin-2-yl)-amide] are above 1000 nM and above 1000 nM.
`O=C(Nc1nc2cccc(-c3ccc(CNC4CC4)cc3)n2n1)C1CC1` [Compound 312, Cyclopropanecarboxylic acid [5-(4-cyclopropylaminomethyl-phenyl)-[1,2,4]triazolo[1,5-a]pyridin-2-yl]-amide]: the IC50 in assay [1] and in assay [2] was 101 to 500 nM throughout.
On to `CC(=O)NC1CN(C(=O)Cc2ccc(-c3cccc4nc(NC(=O)C5CC5)nn34)cc2)C1` [Compound 322, Cyclopropanecarboxylic acid (5-{4-[2-(3-acetylamino-azetidin-1-yl)-2-oxo-ethyl]-phenyl}-[1,2,4]triazolo[1,5-a]pyridin-2-yl)-amide], for which the IC50 in assay [1] and in assay [2] was above 1000 nM throughout.
`O=C(Nc1nc2cccc(-c3ccc(CN4CC(F)(F)C4)cc3)n2n1)C1CC1` [Compound 315, Cyclopropanecarboxylic acid {5-[4-(3,3-difluoro-azetidin-1-ylmethyl)-phenyl]-[1,2,4]triazolo[1,5-a]pyridin-2-yl}-amide]: the IC50 in assay [1] and in assay [2] was 101 to 500 nM each time.
For `CC(=O)NC1CCCN(C(=O)c2ccc(-c3cccc4nc(NC(=O)C5CC5)nn34)cc2)C1` (centres unmarked) [Compound 296, Cyclopropanecarboxylic acid {5-[4-(3-acetylamino-piperidine-1-carbonyl)-phenyl]-[1,2,4]triazolo[1,5-a]pyridin-2-yl}-amide], the values for the IC50 in assay [1] and in assay [2] were 501 to 1000 nM and 101 to 500 nM, respectively.
In the same order, the values of `CN(C)C(=O)C1CN(Cc2ccc(-c3cccc4nc(NC(=O)C5CC5)nn34)cc2)C1` [Compound 299, 1-{4-[2-(Cyclopropanecarbonyl-amino)-[1,2,4]triazolo[1,5-a]pyridin-5-yl]-benzyl}-azetidine-3-carboxylic acid dimethylamide] are above 1000 nM and 501 to 1000 nM.
On the same counts, the results for `O=C(Nc1nc2cccc(-c3ccc(CC(=O)N4CCC4)cc3)n2n1)C1CC1` [Compound 318, Cyclopropanecarboxylic acid {5-[4-(2-azetidin-1-yl-2-oxo-ethyl)-phenyl]-[1,2,4]triazolo[1,5-a]pyridin-2-yl}-amide] are 101 to 500 nM and 101 to 500 nM.
Turning to `C[C@@H]1CN(Cc2ccc(-c3cccc4nc(NC(=O)C5CC5)nn34)cc2)C[C@H](C)O1` [Compound 214, Cyclopropanecarboxylic acid {5-[4-((2R,6S)-2,6-dimethyl-morpholin-4-ylmethyl)-phenyl]-[1,2,4]triazolo[1,5-a]pyridin-2-yl}-amide], the 50% inhibitory concentration (IC50) in assay [1] and in assay [2] was 101 to 500 nM in each case.
For the molecule `O=C(Nc1nc2cccc(-c3ccc(CNc4cc(C(F)(F)F)ccc4F)cc3)n2n1)C1CC1` [Compound 248, Cyclopropanecarboxylic acid (5-{4-[(2-fluoro-5-trifluoromethyl-phenylamino)-methyl]-phenyl}-[1,2,4]triazolo[1,5-a]pyridin-2-yl)-amide], the IC50 in assay [1] and in assay [2] was 101 to 500 nM each time.
Consider `CC1(C)CN(Cc2ccc(-c3cccc4nc(NC(=O)C5CC5)nn34)cc2)C1` [Compound 314, Cyclopropanecarboxylic acid {5-[4-(3,3-dimethyl-azetidin-1-ylmethyl)-phenyl]-[1,2,4]triazolo[1,5-a]pyridin-2-yl}-amide], for which the IC50 in assay [1] was above 1000 nM; in assay [2] it was 101 to 500 nM.
In the same order, the values of `CCN(CC)C1CCN(Cc2ccc(-c3cccc4nc(NC(=O)C5CC5)nn34)cc2)CC1` [Compound 247, Cyclopropanecarboxylic acid {5-[4-(4-diethylamino-piperidin-1-ylmethyl)-phenyl]-[1,2,4]triazolo[1,5-a]pyridin-2-yl}-amide] are above 1000 nM and above 1000 nM.
In the same order, the values of `CN(C)C(=O)C1CN(C(=O)Cc2ccc(-c3cccc4nc(NC(=O)C5CC5)nn34)cc2)C1` [Compound 324, 1-(2-{4-[2-(Cyclopropanecarbonyl-amino)-[1,2,4]triazolo[1,5-a]pyridin-5-yl]-phenyl}-acetyl)-azetidine-3-carboxylic acid dimethylamide] are above 1000 nM and above 1000 nM.
With `CC1(C)COCCN1Cc1ccc(-c2cccc3nc(NC(=O)C4CC4)nn23)cc1` [Compound 213, Cyclopropanecarboxylic acid {5-[4-(3,3-dimethyl-morpholin-4-ylmethyl)-phenyl]-[1,2,4]triazolo[1,5-a]pyridin-2-yl}-amide], the IC50 in assay [1] and in assay [2] was 101 to 500 nM each time.
Consider `O=C(Nc1nc2cccc(-c3ccc(CN4C[C@@H]5C[C@H]4CO5)cc3)n2n1)C1CC1` [Compound 230, Cyclopropanecarboxylic acid (5-{4-[(1S,4S)-1-(2-oxa-5-aza-bicyclo[2.2.1]hept-5-yl)methyl]-phenyl}-[1,2,4]triazolo[1,5-a]pyridin-2-yl)-amide], for which the IC50 in assay [1] and in assay [2] was 101 to 500 nM each time.
Consider `CC(C)(C)OC(=O)NC1CN(Cc2ccc(-c3cccc4nc(NC(=O)C5CC5)nn34)cc2)C1` [Compound 279, (1-{4-[2-(Cyclopropanecarbonyl-amino)-[1,2,4]triazolo[1,5-a]pyridin-5-yl]-benzyl}-azetidin-3-yl)-carbamic acid tert-butyl ester], for which the results for the IC50 in assay [1] and in assay [2] were above 1000 nM and 101 to 500 nM, respectively.
For the molecule `CCOC1CCN(C(=O)c2ccc(-c3cccc4nc(NC(=O)C5CC5)nn34)cc2)CC1` [Compound 294, Cyclopropanecarboxylic acid {5-[4-(4-ethoxy-piperidine-1-carbonyl)-phenyl]-[1,2,4]triazolo[1,5-a]pyridin-2-yl}-amide], the IC50 in assay [1] is above 1000 nM; in assay [2] it was 101 to 500 nM.
As for `O=C(Nc1nc2cccc(-c3ccc(C(=O)N4CCC(O)(c5ccccc5)CC4)cc3)n2n1)C1CC1` [Compound 286, Cyclopropanecarboxylic acid {5-[4-(4-hydroxy-4-phenyl-piperidine-1-carbonyl)-phenyl]-[1,2,4]triazolo[1,5-a]pyridin-2-yl}-amide], the IC50 lay in the range of 501 to 1000 nM in assay [1] and 101 to 500 nM in assay [2].
On the same counts, the results for `O=C1CN(Cc2ccc(-c3cccc4nc(NC(=O)C5CC5)nn34)cc2)CCN1` [Compound 311, Cyclopropanecarboxylic acid {5-[4-(3-oxo-piperazin-1-ylmethyl)-phenyl]-[1,2,4]triazolo[1,5-a]pyridin-2-yl}-amide] are 101 to 500 nM and 101 to 500 nM.
Regarding `O=C(Nc1nc2cccc(-c3ccc(CN4CCC(O)CC4)cc3)n2n1)C1CC1` [Compound 242, Cyclopropanecarboxylic acid {5-[4-(4-hydroxy-piperidin-1-ylmethyl)-phenyl]-[1,2,4]triazolo[1,5-a]pyridin-2-yl}-amide], the IC50 in assay [1] was 501 to 1000 nM; in assay [2] it was 101 to 500 nM.
In the same order, the values of `Cn1nc(C2CC2)cc1NC(=O)c1ccc(-c2cccc3nc(NC(=O)C4CC4)nn23)cc1` [Compound 218, 4-[2-(Cyclopropanecarbonyl-amino)-[1,2,4]triazolo[1,5-a]pyridin-5-yl]-N-(5-cyclopropyl-2-methyl-2H-pyrazol-3-yl)-benzamide] are 101 to 500 nM and 101 to 500 nM.
